Drawing on ChEMBL document CHEMBL3797047, “Discovery of indirubin derivatives as new class of DRAK2 inhibitors from high throughput screening” (Bioorg Med Chem Lett, 2016), this text covers IC50 and Ki for 33 molecules.

For experiment [1], the target named is T1, Serine/threonine-protein kinase 17B (Homo sapiens, UniProt O94768).
T1 sequence (O94768 whole entry): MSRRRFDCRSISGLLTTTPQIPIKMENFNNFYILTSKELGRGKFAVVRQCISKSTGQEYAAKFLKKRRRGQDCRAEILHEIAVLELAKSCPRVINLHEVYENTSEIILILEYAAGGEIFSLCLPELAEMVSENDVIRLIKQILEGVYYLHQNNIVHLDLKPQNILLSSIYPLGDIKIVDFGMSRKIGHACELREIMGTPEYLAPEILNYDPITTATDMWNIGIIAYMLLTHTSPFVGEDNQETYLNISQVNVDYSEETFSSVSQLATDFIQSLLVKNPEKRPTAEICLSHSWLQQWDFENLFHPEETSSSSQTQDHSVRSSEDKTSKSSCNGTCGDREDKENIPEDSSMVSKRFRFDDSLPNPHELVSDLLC
Put plainly: Inhibition of DRAK2 (unknown origin) using MRLC3 peptide as substrate incubated for 2 hrs by ADP-Glo kinase assay.

Experiment [2] concerns the target T2, Serine/threonine-protein kinase 17A (Homo sapiens, UniProt Q9UEE5).
T2 sequence (Q9UEE5 whole entry): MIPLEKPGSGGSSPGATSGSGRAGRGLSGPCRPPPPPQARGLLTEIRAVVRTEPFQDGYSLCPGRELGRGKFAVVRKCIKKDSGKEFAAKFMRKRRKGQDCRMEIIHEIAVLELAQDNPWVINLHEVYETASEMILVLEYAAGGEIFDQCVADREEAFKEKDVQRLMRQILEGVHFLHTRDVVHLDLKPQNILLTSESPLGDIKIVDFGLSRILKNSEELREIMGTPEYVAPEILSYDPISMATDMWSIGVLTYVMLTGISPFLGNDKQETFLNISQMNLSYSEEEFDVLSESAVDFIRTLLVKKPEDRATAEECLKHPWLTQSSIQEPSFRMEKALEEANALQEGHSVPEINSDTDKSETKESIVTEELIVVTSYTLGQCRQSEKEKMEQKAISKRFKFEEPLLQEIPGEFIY
The experiment is described as follows: Inhibition of DRAK1 (unknown origin).

The target in experiment [3] is Death-associated protein kinase 2 (Homo sapiens, UniProt Q9UIK4). The experiment is described as follows: Inhibition of DAPK2 (unknown origin).
Experiment [4] deals with Death-associated protein kinase 3 (Homo sapiens, UniProt O43293). Put plainly: Inhibition of DAPK3 (unknown origin).
The target of experiment [5] is Death-associated protein kinase 1 (Homo sapiens, UniProt P53355). Put plainly: Inhibition of DAPK1 (unknown origin).
Experiment [6] addresses Hepatocyte growth factor receptor (Homo sapiens, UniProt P08581). Put plainly: Inhibition of c-MET (unknown origin) using peptide substrate incubated for 30 mins by europium donor dye-based plate reader analysis.
Experiment [7] deals with T1, Serine/threonine-protein kinase 17B. Put plainly: Competitive inhibition of DRAK2 (unknown origin) using MRLC3 peptide as substrate incubated for 2 hrs by Lineweaver-Burk plot analysis in presence of ATP.
For a further experiment, the target named is Insulin receptor (Homo sapiens, UniProt P06213). The experiment is described as follows: Inhibition of IRK (unknown origin) using peptide substrate incubated for 30 mins by europium donor dye-based plate reader analysis.
Experiment [8] concerns the target Maternal embryonic leucine zipper kinase (Homo sapiens, UniProt Q14680). The experiment is described as follows: Inhibition of MELK (unknown origin) using peptide substrate incubated for 30 mins by europium donor dye-based plate reader analysis.
A further experiment concerns the target Activated CDC42 kinase 1 (Homo sapiens, UniProt Q07912). Put plainly: Inhibition of AcK1 (unknown origin) using peptide substrate incubated for 30 mins by europium donor dye-based plate reader analysis.
Experiment [9] deals with ALK tyrosine kinase receptor (Homo sapiens, UniProt Q9UM73). The experiment is described as follows: Inhibition of ALK (unknown origin) using peptide substrate incubated for 30 mins by europium donor dye-based plate reader analysis.
For experiment [10], the target named is T3, Epidermal growth factor receptor (Homo sapiens, UniProt P00533). The experiment is described as follows: Inhibition of EGFR (unknown origin) using peptide substrate incubated for 30 mins by europium donor dye-based plate reader analysis.
Experiment [11] concerns the target T3, Epidermal growth factor receptor. The experiment is described as follows: Inhibition of EGFR (746 to 750) deletion mutant (unknown origin) using peptide substrate incubated for 30 mins by europium donor dye-based plate reader analysis. In kind it is protein assay.

Chain of ALK tyrosine kinase receptor (Q9UM73 whole entry): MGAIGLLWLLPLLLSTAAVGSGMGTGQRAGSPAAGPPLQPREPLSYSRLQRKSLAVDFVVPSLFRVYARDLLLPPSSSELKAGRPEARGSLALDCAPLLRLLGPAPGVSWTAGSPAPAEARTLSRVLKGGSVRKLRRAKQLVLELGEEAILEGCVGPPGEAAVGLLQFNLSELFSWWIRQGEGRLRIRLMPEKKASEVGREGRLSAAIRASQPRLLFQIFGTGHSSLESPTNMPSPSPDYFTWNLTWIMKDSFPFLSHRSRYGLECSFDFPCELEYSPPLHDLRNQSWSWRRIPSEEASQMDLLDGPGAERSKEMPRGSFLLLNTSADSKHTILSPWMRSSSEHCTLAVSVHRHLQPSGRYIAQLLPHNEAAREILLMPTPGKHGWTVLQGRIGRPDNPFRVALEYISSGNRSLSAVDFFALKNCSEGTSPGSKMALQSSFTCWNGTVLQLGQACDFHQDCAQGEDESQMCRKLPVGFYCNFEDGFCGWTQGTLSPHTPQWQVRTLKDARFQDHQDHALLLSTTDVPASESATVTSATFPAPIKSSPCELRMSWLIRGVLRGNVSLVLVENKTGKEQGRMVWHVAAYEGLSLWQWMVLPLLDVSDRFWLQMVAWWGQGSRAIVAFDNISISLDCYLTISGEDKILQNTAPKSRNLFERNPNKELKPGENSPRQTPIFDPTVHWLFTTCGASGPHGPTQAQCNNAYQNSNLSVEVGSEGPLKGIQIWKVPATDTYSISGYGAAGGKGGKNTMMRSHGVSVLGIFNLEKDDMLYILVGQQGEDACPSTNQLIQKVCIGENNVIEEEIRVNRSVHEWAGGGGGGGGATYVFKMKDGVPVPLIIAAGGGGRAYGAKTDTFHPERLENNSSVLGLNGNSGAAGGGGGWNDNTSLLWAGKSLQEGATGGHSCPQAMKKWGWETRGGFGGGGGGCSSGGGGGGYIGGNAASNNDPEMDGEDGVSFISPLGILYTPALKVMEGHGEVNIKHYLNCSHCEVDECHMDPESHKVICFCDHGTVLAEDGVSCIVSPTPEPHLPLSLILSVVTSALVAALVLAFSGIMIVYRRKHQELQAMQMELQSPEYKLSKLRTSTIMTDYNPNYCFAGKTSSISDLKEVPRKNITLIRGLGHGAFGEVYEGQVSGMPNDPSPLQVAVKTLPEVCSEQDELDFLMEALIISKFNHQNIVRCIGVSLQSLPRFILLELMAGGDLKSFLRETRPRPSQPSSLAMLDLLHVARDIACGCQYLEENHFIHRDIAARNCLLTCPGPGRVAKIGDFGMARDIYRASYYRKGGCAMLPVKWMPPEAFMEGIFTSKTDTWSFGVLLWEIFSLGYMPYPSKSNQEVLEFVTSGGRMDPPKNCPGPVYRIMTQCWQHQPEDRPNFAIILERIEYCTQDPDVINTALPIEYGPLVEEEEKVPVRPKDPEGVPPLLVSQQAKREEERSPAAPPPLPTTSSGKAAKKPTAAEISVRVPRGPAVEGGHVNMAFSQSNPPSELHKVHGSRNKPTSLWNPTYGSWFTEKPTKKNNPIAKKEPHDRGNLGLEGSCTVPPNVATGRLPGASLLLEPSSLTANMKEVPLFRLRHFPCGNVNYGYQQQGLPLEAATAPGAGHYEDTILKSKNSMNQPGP
Chain of Maternal embryonic leucine zipper kinase (Q14680 whole entry): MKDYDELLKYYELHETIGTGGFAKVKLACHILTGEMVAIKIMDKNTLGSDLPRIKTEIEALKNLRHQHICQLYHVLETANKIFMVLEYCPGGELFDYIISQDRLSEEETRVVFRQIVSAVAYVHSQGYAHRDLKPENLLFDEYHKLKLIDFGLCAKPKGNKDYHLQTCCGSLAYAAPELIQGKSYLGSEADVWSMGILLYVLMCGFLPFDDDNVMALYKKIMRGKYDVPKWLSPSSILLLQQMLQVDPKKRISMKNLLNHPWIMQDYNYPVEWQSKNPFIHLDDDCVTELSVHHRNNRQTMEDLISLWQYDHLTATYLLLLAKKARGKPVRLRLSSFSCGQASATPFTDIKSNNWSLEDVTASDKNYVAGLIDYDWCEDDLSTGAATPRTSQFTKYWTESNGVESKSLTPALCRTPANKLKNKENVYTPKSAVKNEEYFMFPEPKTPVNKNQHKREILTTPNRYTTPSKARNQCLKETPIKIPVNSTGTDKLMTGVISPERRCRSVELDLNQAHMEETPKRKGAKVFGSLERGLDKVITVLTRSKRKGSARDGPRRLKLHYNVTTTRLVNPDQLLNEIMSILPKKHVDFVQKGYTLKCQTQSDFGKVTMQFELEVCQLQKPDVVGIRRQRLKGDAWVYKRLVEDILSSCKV
Chain of Insulin receptor (P06213 28-758 limits assumed): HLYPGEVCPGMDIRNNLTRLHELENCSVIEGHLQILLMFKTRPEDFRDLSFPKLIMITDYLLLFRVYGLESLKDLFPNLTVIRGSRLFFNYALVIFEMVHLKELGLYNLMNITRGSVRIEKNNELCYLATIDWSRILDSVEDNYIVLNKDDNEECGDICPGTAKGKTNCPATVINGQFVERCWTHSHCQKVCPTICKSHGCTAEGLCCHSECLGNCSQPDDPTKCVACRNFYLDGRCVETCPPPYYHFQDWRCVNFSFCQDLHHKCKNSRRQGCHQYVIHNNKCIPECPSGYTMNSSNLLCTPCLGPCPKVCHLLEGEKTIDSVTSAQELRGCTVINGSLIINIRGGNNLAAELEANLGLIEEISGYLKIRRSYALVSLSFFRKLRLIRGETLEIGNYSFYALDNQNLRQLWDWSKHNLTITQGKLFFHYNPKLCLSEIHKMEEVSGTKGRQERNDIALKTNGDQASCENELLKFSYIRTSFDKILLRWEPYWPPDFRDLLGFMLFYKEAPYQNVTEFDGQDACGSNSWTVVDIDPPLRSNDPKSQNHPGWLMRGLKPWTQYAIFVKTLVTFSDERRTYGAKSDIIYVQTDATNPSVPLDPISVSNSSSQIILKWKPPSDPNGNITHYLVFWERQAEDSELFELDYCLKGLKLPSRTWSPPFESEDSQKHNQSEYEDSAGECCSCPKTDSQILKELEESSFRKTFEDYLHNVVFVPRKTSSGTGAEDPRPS
Chain of Insulin receptor (P06213 763-1382 limits assumed): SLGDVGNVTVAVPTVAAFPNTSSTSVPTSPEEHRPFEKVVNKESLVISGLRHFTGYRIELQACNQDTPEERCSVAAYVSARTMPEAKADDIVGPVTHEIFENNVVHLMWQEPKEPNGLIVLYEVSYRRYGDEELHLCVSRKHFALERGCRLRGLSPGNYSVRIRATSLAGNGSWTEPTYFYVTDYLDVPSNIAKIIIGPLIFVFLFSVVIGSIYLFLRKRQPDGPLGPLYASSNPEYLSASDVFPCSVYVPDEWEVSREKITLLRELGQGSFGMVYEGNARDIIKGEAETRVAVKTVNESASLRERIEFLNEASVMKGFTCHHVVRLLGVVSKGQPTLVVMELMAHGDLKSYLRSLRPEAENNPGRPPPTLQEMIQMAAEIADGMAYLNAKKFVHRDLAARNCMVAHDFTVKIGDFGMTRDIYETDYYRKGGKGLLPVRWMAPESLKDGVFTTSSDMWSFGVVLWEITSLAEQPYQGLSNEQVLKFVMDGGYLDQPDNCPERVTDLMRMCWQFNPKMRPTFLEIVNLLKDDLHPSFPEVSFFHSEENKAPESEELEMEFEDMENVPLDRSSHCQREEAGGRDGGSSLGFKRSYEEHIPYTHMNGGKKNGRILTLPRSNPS
Chain of Death-associated protein kinase 1 (P53355 whole entry): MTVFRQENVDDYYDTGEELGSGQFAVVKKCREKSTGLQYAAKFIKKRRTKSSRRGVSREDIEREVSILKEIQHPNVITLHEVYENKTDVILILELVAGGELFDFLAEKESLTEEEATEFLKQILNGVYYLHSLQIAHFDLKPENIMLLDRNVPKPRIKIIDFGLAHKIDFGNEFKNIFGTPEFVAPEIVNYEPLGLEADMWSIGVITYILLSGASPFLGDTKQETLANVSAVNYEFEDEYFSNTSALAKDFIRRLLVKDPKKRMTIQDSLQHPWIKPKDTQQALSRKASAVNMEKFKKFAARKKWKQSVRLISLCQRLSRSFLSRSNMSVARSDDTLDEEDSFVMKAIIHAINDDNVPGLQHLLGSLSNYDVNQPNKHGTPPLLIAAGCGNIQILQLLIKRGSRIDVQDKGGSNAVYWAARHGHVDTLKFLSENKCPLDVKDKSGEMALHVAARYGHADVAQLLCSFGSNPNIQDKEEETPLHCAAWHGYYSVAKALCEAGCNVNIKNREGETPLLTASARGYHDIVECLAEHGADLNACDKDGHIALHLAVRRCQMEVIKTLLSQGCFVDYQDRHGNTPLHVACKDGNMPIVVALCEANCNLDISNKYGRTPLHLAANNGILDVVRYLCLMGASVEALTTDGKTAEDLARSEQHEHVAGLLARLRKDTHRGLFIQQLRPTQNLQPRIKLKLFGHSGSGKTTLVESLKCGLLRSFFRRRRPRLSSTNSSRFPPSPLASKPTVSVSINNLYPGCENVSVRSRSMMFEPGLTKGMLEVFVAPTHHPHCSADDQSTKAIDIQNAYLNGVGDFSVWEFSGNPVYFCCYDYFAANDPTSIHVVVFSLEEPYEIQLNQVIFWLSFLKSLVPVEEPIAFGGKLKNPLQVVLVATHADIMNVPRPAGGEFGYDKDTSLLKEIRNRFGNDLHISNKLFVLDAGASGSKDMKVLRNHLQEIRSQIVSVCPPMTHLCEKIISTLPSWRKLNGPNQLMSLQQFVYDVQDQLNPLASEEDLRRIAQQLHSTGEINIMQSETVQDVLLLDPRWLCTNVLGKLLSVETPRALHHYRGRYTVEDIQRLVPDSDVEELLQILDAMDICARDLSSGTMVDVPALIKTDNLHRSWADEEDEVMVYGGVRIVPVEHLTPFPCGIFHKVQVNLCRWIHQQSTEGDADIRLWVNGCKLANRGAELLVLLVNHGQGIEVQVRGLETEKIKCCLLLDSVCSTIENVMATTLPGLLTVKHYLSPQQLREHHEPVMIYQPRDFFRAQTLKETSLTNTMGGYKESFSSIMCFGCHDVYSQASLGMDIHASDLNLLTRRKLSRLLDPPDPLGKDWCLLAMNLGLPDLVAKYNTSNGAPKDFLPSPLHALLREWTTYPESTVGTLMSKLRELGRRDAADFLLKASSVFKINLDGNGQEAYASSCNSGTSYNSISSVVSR

Turning to `O=C1Nc2ccc(F)cc2/C1=C1/Nc2ccccc2C1=O`, the half-maximal inhibitory concentration (IC50) in experiment [1] was greater than 10000 nM.

In the case of `O=C1Nc2ccc(F)cc2/C1=C1/Nc2ccccc2/C1=N\O`, half-maximal inhibition in experiment [1] (IC50) was put at 620 nM.

For the molecule `O=C1Nc2ccc(I)cc2/C1=C1/Nc2ccccc2C1=O`, in experiment [1], it took 6200 nM to reach half-maximal inhibition (IC50).

`Cc1ccc2c(c1)/C(=C1/Nc3ccccc3C1=O)C(=O)N2` gave an IC50 in experiment [1] greater than 10000 nM.

For `O=C1Nc2ccc(Cl)cc2/C1=C1/Nc2ccccc2C1=O`, in experiment [1], the half-maximal inhibitory concentration (IC50) was greater than 10000 nM.

For the molecule `Cc1cc(Cl)cc2c1NC(=O)/C2=C1\Nc2ccccc2\C1=N/O`, the IC50 in experiment [1] is greater than 10000 nM.

`O=C1Nc2ccccc2/C1=C1/Nc2ccccc2/C1=N\O` yielded an IC50 in experiment [1] of 710 nM.

With `CC(C)=CC(=O)Nc1ccc2c(c1)/C(=C1/Nc3ccccc3/C1=N\O)C(=O)N2`, the 50% inhibitory concentration (IC50) is 120 nM in experiment [2]; 570 nM in [3]; 450 nM in experiment [4]; 14 nM in experiment [1]; 450 nM in experiment [5].

For the molecule `CCCCC(=O)Nc1ccc2c(c1)/C(=C1/Nc3ccccc3/C1=N\O)C(=O)N2`, the half-inhibitory concentration (IC50) is greater than 10 µM in experiment [6]; 51 nM in experiment [2]; 2300 nM in experiment [3]; greater than 10 µM against Insulin receptor; greater than 10000 nM in [8]; greater than 10 µM against Activated CDC42 kinase 1. The IC50 was 1800 nM in experiment [4]; greater than 10 µM in [9]; 3 nM in experiment [1]; greater than 10 µM in experiment [10]; 1800 nM in experiment [5]; greater than 10 µM in experiment [11]. The Ki in experiment [7] was found to be 0.26 nM.

For `COc1ccc(C(=O)Nc2ccc3c(c2)/C(=C2/Nc4ccccc4/C2=N\O)C(=O)N3)cc1`, the values for the half-inhibitory concentration (IC50) in [2] and in [1] were 360 nM and 330 nM, respectively.

As for `O=C1Nc2ccc(NC(=O)c3ccc(Cl)cc3)cc2/C1=C1/Nc2ccccc2/C1=N\O`, the results for the IC50 in [2] and in experiment [1] were 3000 nM and 3200 nM, respectively.

For the molecule `O=C1Nc2ccc(NC(=O)c3ccccc3)cc2/C1=C1/Nc2ccccc2/C1=N\O`, the IC50 in [2] is 360 nM; in experiment [1], 200 nM.

Take `O=C1Nc2ccc(NC(=O)c3ccccc3F)cc2/C1=C1/Nc2ccccc2/C1=N\O`: the IC50 stood at 250 nM in experiment [2] and 290 nM in [1].

In the case of `O=C1Nc2ccc(NC(=O)c3cc([N+](=O)[O-])cc([N+](=O)[O-])c3)cc2/C1=C1/Nc2ccccc2/C1=N\O`, the IC50 in experiment [2] stood at 24 nM; in experiment [1], 77 nM.

On to `O=C1Nc2ccc(NC(=O)C3CCCCC3)cc2/C1=C1/Nc2ccccc2/C1=N\O`, for which the values for the IC50 in experiment [2] and in [1] were 110 nM and 120 nM, respectively.

The molecule `O=C1Nc2ccccc2/C1=C1/Nc2cccc(Br)c2C1=O` returned an IC50 in experiment [1] greater than 10000 nM.

Regarding `O=C1Nc2ccc(NC(=O)c3ccccc3C(F)(F)F)cc2/C1=C1/Nc2ccccc2/C1=N\O`, the IC50 in [2] was 320 nM; in experiment [1] it was 120 nM.

In the case of `O=C(/C=C/c1ccccc1)Nc1ccc2c(c1)/C(=C1/Nc3ccccc3/C1=N\O)C(=O)N2`, the IC50 in experiment [2] came out at 1100 nM; in experiment [1], 700 nM.

Consider `O=C1Nc2ccc(NC(=O)c3ccc(F)cc3)cc2/C1=C1/Nc2ccccc2/C1=N\O`, for which the concentration for half-maximal inhibition (IC50) was determined as 780 nM in experiment [2] and 1200 nM in [1].

Take `Cc1ccc(C(=O)Nc2ccc3c(c2)/C(=C2/Nc4ccccc4/C2=N\O)C(=O)N3)cc1`: the half-maximal inhibitory concentration (IC50) in [2] and in [1] was 1300 nM throughout.

Turning to `O=C(COc1cccc(Cl)c1)Nc1ccc2c(c1)/C(=C1/Nc3ccccc3/C1=N\O)C(=O)N2`, the results for the half-maximal inhibitory concentration (IC50) in experiment [2] and in [1] were 460 nM and 950 nM, respectively.

As for `O=C1Nc2ccc(NC(=O)c3ccc([N+](=O)[O-])cc3)cc2/C1=C1/Nc2ccccc2/C1=N\O`, the results for the half-inhibitory concentration (IC50) in experiment [2] and in experiment [1] were 500 nM and 1300 nM, respectively.

As for `O=C1Nc2ccc(NC(=O)c3cccc4ccccc34)cc2/C1=C1/Nc2ccccc2/C1=N\O`, the concentration for half-maximal inhibition (IC50) in experiment [2] was 700 nM; in experiment [1], 1500 nM.

With `O=C1Nc2ccc(NC(=O)C3CC3)cc2/C1=C1/Nc2ccccc2/C1=N\O`, the IC50 in experiment [2] is 21 nM; in experiment [3], 170 nM; in experiment [4], 140 nM; in [1] it was 8 nM; in experiment [5], 140 nM.

On to `CC(C)(C)CC(=O)Nc1ccc2c(c1)/C(=C1/Nc3ccccc3/C1=N\O)C(=O)N2`, for which the IC50 in experiment [2] is 24 nM; in experiment [3] it was greater than 10000 nM; in experiment [4], greater than 10000 nM; in experiment [1] it was 14 nM; in [5], greater than 10000 nM.

Molecule `Cc1cc(Cl)cc2c1NC(=O)/C2=C1\Nc2ccccc2C1=O` showed an IC50 in [1] greater than 10000 nM.

On to `CCCC(=O)Nc1ccc2c(c1)/C(=C1/Nc3ccccc3/C1=N\O)C(=O)N2`, for which the IC50 is greater than 10 µM in experiment [6]; 12 nM in experiment [2]; 590 nM in [3]; greater than 10 µM at Insulin receptor; 1000 nM in [8]; greater than 10 µM at Activated CDC42 kinase 1. For the same molecule, the IC50 in experiment [4] was 510 nM; in experiment [9], greater than 10 µM; in experiment [1], 10 nM; in [10], greater than 10 µM; in experiment [5], 510 nM; in experiment [11] it was 8 µM.

The molecule `Cc1cc(C)c2c(c1)/C(=C1/Nc3ccccc3C1=O)C(=O)N2` displayed an IC50 in experiment [1] greater than 10000 nM.

In experiment [1], `O=C1Nc2ccc([N+](=O)[O-])cc2/C1=C1/Nc2cccc(Br)c2C1=O` had an IC50 greater than 10000 nM.

Regarding `CC(C)(C)C(=O)Nc1ccc2c(c1)/C(=C1/Nc3ccccc3/C1=N\O)C(=O)N2`, the concentration for half-maximal inhibition (IC50) is greater than 10 µM in experiment [6]; 32 nM in experiment [2]; 830 nM in [3]; greater than 10 µM on Insulin receptor; 2800 nM in [8]; greater than 10 µM at Activated CDC42 kinase 1. The half-inhibitory concentration (IC50) in [4] was 700 nM; in experiment [9], greater than 10 µM; in experiment [1], 21 nM; in experiment [10], greater than 10 µM; in [5], 700 nM; in [11] it was greater than 10 µM.

As for `Nc1ccc2c(c1)/C(=C1/Nc3ccccc3C1=O)C(=O)N2`, half-maximal inhibition in experiment [1] (IC50) was put at 1400 nM.

With `Nc1ccc2c(c1)/C(=C1/Nc3ccccc3/C1=N\O)C(=O)N2`, the IC50 in experiment [1] was determined as 250 nM.

Molecule `O=C1Nc2ccccc2/C1=C1/Nc2ccccc2C1=O` [INDIRUBIN] registered an IC50 in [1] greater than 10000 nM.

By IC50 is commonly meant the concentration that inhibits the measured activity by half. Read a high IC50 as weaker potency. Broadly, the Ki is a dissociation constant, usually derived from enzyme kinetics or from competition with a known ligand.
